Three compounds from patent publication US9110051B2, “Pharmacologic method of lowering cholesterol production” (The University of Chicago, priority 2004, dated 2015) can be followed below.

What all share (assay type): cell-based
One experiment has as its system human red blood cells. Nature of the experiment: Screen using red blood cell lysis by amphotericin B. As to conditions: for effect on amphotericin B lysis of red cells (activity of membrane cholesterol): cholesterol lowered with cyclodextrin, turbidity or by eye, FIGS. 1 and 2; for red blood cell lysis caused by amphotericin B (visual screen): cholesterol-modified cells, octanol 0.2 μmol/well or lysophosphatidylcholine 1 μg/well, amphotericin B 20 μg/well, 1 h, room temperature. The procedure:
Human red blood cells were either freshly drawn or taken from an outdated blood bank source and then washed and suspended in physiological buffer. The cholesterol content of washed human red blood cells was varied with methyl-β-cyclodextrin/methyl-β-cyclodextrin-cholesterol complexes. The cells were distributed into a 96-well plate and incubated for a few minutes with saline (O), 0.2 μmol/well octanol (V) or 1 μg/well lysophosphatidylcholine (□). Amphotericin B (20 μg/well) was added and the plate incubated for 1 hour at room temperature. […] In FIG. 1, turbidity (signifying intact cells) was determined in a plate-reading photometer as optical density (OD) at 500 nm; loss of OD signifies lysis. In FIG. 1, results are plotted versus total human red blood cell cholesterol, assessed with Amplex™ Red, Molecular Probes, Eugene, Oreg. The cholesterol content of unmodified red blood cells was 0.55 μg/μl cells, close to the threshold of the control curve.
Cells with modified cholesterol were placed in the conical wells of a 96-well plate, briefly pre-incubated with the two test compounds, and then treated with amphotericin B (20 μg/well) for one hour at room temperature. The plate was photographed after the cells settled. Row A: saline control. Cells depleted of cholesterol (wells 1-6) resisted lysis (seen as a loss of the central button). Row B: n-octanol (0.2 μmol/well). […] Row C: Lysophosphatidylcholine (1 μg/well).
Human red cells (freshly drawn or from an outdated blood bank source) were washed and suspended in physiological buffer. […] The cholesterol modified cells were placed in the wells of a microtiter plate and incubated for a few minutes at room temperature with octanol and lysophosphatidylcholine, which can be replaced with a battery of drugs (individually or in mixtures). Amphotericin B was then added and the plate incubated at room temperature for an hour. Cell lysis was scored by reading light scattering in a plate-reading photometer (FIG. 1) or, more simply, by letting the unlysed cells settle for an hour in conical wells and then assessing hemolysis by eye (FIG. 2).
Polyene antibiotics such as amphotericin B are known to promote the disruption of cholesterol containing membranes. However, this action depends critically on the cholesterol level in the membrane (see the control curves, O - - - O, in FIGS. 1 and 2). The critical cholesterol content for lysis is close to the physiological level in human fibroblast plasma membranes, for the same reason that ER cholesterol responds dramatically near the physiological content of the plasma membrane. […]

Experiment [1] deals with human fibroblast cell line. Kind of experiment: Fibroblast plasma membrane cholesterol susceptibility to cholesterol oxidase. As to conditions: adding 0.1-1.0 mM octanol. As to the method:
A human fibroblast cell line is grown in bulk culture and seeded into microtiter wells the day before experimentation. The fibroblast cells from the fibroblast cell line are rinsed and treated with octanol plus cholesterol oxidase as in Example 2. The increased level of plasma membrane cholesterol activity is detected in two ways. First, plasma membrane cholesterol activity is detected by susceptibility to cholesterol oxidase. […] Cell lysis caused by cholesterol oxidation can also be determined by measuring increased cell permeability using a plate fluorescence reader and the impermeable indicator of potassium ions, PBFI, or another indicator system.

The test system of the next experiment is human fibroblasts. Nature of the experiment: Effect of octanol on fibroblast cholesterol. As to conditions: 24 h in growth medium with octanol, FIG. 4. As to the method: FIG. 4 depicts the effect of octanol on fibroblast cholesterol. Replicate flasks of fibroblasts were incubated for 24 h in growth medium with octanol. The cells were then assayed for cholesterol and protein.
The cultured cells described in Example 3 will be plated in microtiter wells and incubated with test compounds at 37° C. for two days to allow a full metabolic response. The drug will then be washed away, amphotericin B added to the wells and cell lysis followed from the leakage of potassium ions or another indicator, as above. Resistance to amphotericin B lysis will indicate that the objective has been achieved: the reduction of plasma membrane cholesterol in response to the test compound. Other polyene antibiotics (e.g., nystatin and filipin) will be tested in place of amphotericin B in order to discern their effects. In contrast to the screens described in the previous examples, which are used to identify compounds that raise the activity of membrane cholesterol, the present assay will measure the long-term effect of modulating cholesterol levels. Agents that increase plasma membrane cholesterol activity, when used as drugs, will signal cells to reduce their cholesterol accretion homeostatically. […] This can be detected by their increased resistance to amphotericin B, which normally lyses these cells.

The next experiment relates to red blood cells. Nature of the experiment: Lysis of red blood cells by saponin. As to conditions: saponin 0-8 μg/well, 30 minutes, compared to solvent control, FIG. 6. The procedure: Red blood cells were pre-treated with either octanol, diglyceride, ceramide, or solvent before incubation with varying concentrations of saponin. The decrease in optical absorbance at 500 nm indicates increasing lysis.
Red cell membranes are treated with octanol, diglyceride, ceramide, or solvent before incubation with different concentrations of saponin (0-8 μg/well) for 30 minutes. Optical absorbance at OD500 is measured. Decreased optical absorbance indicates increasing lysis by saponin.

Another experiment concerns red cell membranes. Nature of the experiment: Oxidation of red cell membrane cholesterol by cholesterol oxidase. As to conditions: 0-12 μmolar analog pretreatment; cholesterol oxidase 1 h, FIG. 5. The procedure:
The red cell membranes were pretreated with ceramide or diglycerides and then treated with cholesterol oxidase for a hour. An increase in oxidation following cholesterol oxidase treatment signifies an increase in active cellular cholesterol.
Red cell membrane lysis is measured using cholesterol oxidase as set forth in the examples above. Prior to lysis, red cell membranes are treated with either differing amounts of a ceramide analog (0-12 μmolar) or differing amounts of a diglyceride analog (0-12 μmolar). The increased level of plasma membrane cholesterol activity is detected by susceptibility to cholesterol oxidase and measured as a % of oxidation.

With `CCCCCCCCO` [octanol, n-octanol], in the experiment on human red blood cells, the “effect on amphotericin B lysis of red cells (activity of membrane cholesterol)” value is “favors amphotericin B lysis” and the “red blood cell lysis caused by amphotericin B (visual screen)” value is reported as “Even cholesterol depleted cells were lysed by amphotericin B”. For the same compound, the “oxidation of fibroblast cholesterol by cholesterol oxidase” value in experiment [1] is given as “readily oxidized”. In addition, in the experiment with human fibroblasts, the “fibroblast cell cholesterol after prolonged culture” value is “resulted in cholesterol reduction”. Besides, in the experiment on red blood cells, the “lysis of red blood cells by saponin (OD500)” value is “increase lysis of red blood cells at lower concentrations of saponin”.

In the case of ceramide, the “susceptibility of red cell cholesterol to oxidation by cholesterol oxidase (% of oxidation)” value in the experiment on red cell membranes was “increase the susceptibility of red cell cholesterol to oxidation”. Moreover, the “lysis of red blood cells by saponin (OD500)” value in the experiment on red blood cells was “increase lysis of red blood cells at lower concentrations of saponin”.

As for lysophosphatidylcholine, in the experiment with human red blood cells, the “effect on amphotericin B lysis of red cells (activity of membrane cholesterol)” value was “has the opposite effect” and the “red blood cell lysis caused by amphotericin B (visual screen)” value was “Even enriched cells resisted amphotericin B lysis”.
